# Results reported in US20240343733A1, “COMPOUNDS FOR TARGETING DEGRADATION OF IRAK4 PROTEINS” (BIOGEN MA INC., priority 2021, published 2024).
# Target: T1, IRAK4 (Homo sapiens, UniProt Q9NWZ3)
# T1 construct: 293Tcells expressing HiBiT-tagged IRAK4 were then added into 384-well plates
# T1 sequence (Q9NWZ3 1-460): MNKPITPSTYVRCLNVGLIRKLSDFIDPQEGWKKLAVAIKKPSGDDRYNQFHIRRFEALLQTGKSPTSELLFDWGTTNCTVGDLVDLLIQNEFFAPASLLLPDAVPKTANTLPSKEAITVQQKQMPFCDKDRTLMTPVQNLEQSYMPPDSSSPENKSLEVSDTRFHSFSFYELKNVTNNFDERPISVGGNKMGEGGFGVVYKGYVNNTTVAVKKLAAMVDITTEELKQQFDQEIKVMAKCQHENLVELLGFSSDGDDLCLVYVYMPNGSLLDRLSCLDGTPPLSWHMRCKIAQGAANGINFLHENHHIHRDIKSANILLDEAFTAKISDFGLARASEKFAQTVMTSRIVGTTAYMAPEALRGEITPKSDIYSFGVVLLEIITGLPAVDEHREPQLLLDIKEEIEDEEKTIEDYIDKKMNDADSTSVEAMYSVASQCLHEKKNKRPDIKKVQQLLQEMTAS
# Assay: IRAK4 Degradation Assay, HiBiT Method
# Assay type: cell-based
# Settings: 293T cells expressing HiBiT-tagged IRAK4, 6 hours
# Experimental: Assay 1. IRAK4 Degradation Assay, HiBiT Method
# Selected compounds were tested in an IRAK4 degradation assay using the HiBiT Method.
# Phenol red-free Dulbecco's modified Eagle medium (DMEM) and fetal bovine serum (FBS) were purchased from Gibco (Grand Island, NY, USA). The Nano-Glo® HiBiT Lytic Assay System was purchased from Promega (Madison, WI, USA). Cell culture flasks and 384-well microplates were acquired from VWR (Radnor, PA, USA). The 293Tcell line was engineered by knocking-in a HiBiT fusion tag into the C-terminal of the IRAK4 gene in 293T cells (Synthego, Redwood City, CA, USA).
# IRAK4 degradation was measured via the quantification of luminescent signals using the Nano-Glo® HiBiT Lytic Assay kit. Test compounds were added to 384-well plates in duplicate using an 11-point half-log dilution series, with the highest dose set at […]. 293Tcells expressing HiBiT-tagged IRAK4 were then added into 384-well plates at a cell density of 10,000 cells per well. The plates were kept at 37° C. with 5% CO2 for 6 hours. Cells that were treated only with DMSO served as the negative control; wells that contained only assay media served as the background control. After the 6-hour incubation, Nano-Glo® HiBiT Lytic Assay reagents were added to the cells. Luminescence was acquired using an EnVision™ Multilabel Reader (PerkinElmer, Santa Clara, CA, USA).
row,DC50 [nM],Compound
1,10 to 100,"CC(C)Oc1cc2nn([C@H]3CC[C@H](CN4CCC(c5ccc(O[C@@H]6CCC(=O)NC6=O)cc5)CC4)CC3)cc2cc1C(=O)Nc1cccn(C2CC2)c1=O (single isomer, unassigned) [Example 143]"
2,10 to 100,"CC(C)Oc1cc2nc([C@H]3CC[C@H](CN(C)C4CCN(c5cccc(C6CCC(=O)NC6=O)c5)CC4)CC3)cn2cc1C(=O)Nc1cccc(C(F)(F)F)n1 (stereo partly shown) [Example 11, 2-[4-[[[1-[3-(2,6-dioxo-3-piperidyl)phenyl]-4-piperidyl]-methyl-amino]methyl]cyclohexyl]-7-isopropoxy-N-[6-(trifluoromethyl)-2-pyridyl]imidazo[1,2-a]pyridine-6-carboxamide]"
3,100 to 500,"CC(C)Oc1cc2nc([C@H]3CC[C@H](CN4CCC(c5cccc(NC6CCC(=O)NC6=O)c5)CC4)CC3)cn2cc1C(=O)Nc1cccc(C(F)(F)F)n1 (stereo partly shown) [Example 12, 2-[4-[[4-[3-[(2,6-dioxo-3-piperidyl)amino]phenyl]-1-piperidyl]methyl]cyclohexyl]-7-isopropoxy-N-[6-(trifluoromethyl)-2-pyridyl]imidazo[1,2-a]pyridine-6-carboxamide]"
4,10 to 100,"CC(C)Oc1cc2nc([C@H]3CC[C@H](CN(C)C4CCN(c5ccc(C6CCC(=O)NC6=O)cc5)CC4)CC3)cn2cc1C(=O)Nc1cccc(C(F)(F)F)n1 (stereo partly shown) [Example 13, 2-[4-[[[1-[4-(2,6-dioxo-3-piperidyl)phenyl]-4-piperidyl]-methyl-amino]methyl]cyclohexyl]-7-isopropoxy-N-[6-(trifluoromethyl)-2-pyridyl]imidazo[1,2-a]pyridine-6-carboxamide]"
5,500 to 1000,"CC(C)Oc1cc2nc([C@H]3CC[C@H](CN(C)C4CCN(Cc5cccc(NC6CCC(=O)NC6=O)c5)CC4)CC3)cn2cc1C(=O)Nc1cccc(C(F)(F)F)n1 (stereo partly shown) [Example 14, 2-[4-[[[1-[[3-[(2,6-dioxo-3-piperidyl)amino]phenyl]methyl]-4-piperidyl]-methyl-amino]methyl]cyclohexyl]-7-isopropoxy-N-[6-(trifluoromethyl)-2-pyridyl]imidazo[1,2-a]pyridine-6-carboxamide]"
6,10 to 100,"CC(C)Oc1cc2nc(C3CCC(CN4CCC(c5ccc(C6CCC(=O)NC6=O)cc5)CC4)CC3)cn2cc1C(=O)Nc1cccc(C(F)F)n1 (stereo not shown) [Example 15, N-[6-(difluoromethyl)-2-pyridyl]-2-[4-[[4-[4-(2,6-dioxo-3-piperidyl)phenyl]-1-piperidyl]methyl]cyclohexyl]-7-isopropoxy-imidazo[1,2-a]pyridine-6-carboxamide]"
7,10 to 100,"CC(C)Oc1cc2nc([C@H]3CC[C@H](CN4CCC(c5ccc(NC6CCC(=O)NC6=O)cc5)CC4)CC3)cn2cc1C(=O)Nc1cccc(C(F)F)n1 (stereo partly shown) [Example 16, N-[6-(difluoromethyl)-2-pyridyl]-2-[4-[[4-[4-[(2,6-dioxo-3-piperidyl)amino]phenyl]-1-piperidyl]methyl]cyclohexyl]-7-isopropoxy-imidazo[1,2-a]pyridine-6-carboxamide]"
8,10 to 100,"CC(C)Oc1cc2nc([C@H]3CC[C@H](CN4CCC(c5cccc6c5n(C)c(=O)n6C5CCC(=O)NC5=O)CC4)CC3)cn2cc1C(=O)Nc1cccc(C(F)F)n1 (stereo partly shown) [Example 17, N-[6-(difluoromethyl)-2-pyridyl]-2-[4-[[4-[1-(2,6-dioxo-3-piperidyl)-3-methyl-2-oxo-benzimidazol-4-yl]-1-piperidyl]methyl]cyclohexyl]-7-isopropoxy-imidazo[1,2-a]pyridine-6-carboxamide]"
9,10 to 100,"CC(C)Oc1cc2nc([C@H]3CC[C@H](CN4CCC(c5ccc(NC6CCC(=O)NC6=O)cc5F)CC4)CC3)cn2cc1C(=O)Nc1cccc(C(F)F)n1 (stereo partly shown) [Example 18, N-[6-(difluoromethyl)-2-pyridyl]-2-[4-[[4-[4-[(2,6-dioxo-3-piperidyl)amino]-2-fluoro-phenyl]-1-piperidyl]methyl]cyclohexyl]-7-isopropoxy-imidazo[1,2-a]pyridine-6-carboxamide]"

# Further lines, the compound ahead of its results:
row,Compound,DC50 [nM]
1,"CC(C)Oc1cc2nc(C3CCC(CN4CCC(c5ccc(NC6CCC(=O)NC6=O)cc5F)CC4)CC3)cn2cc1C(=O)Nc1cccc(C(F)(F)F)n1 (stereo not shown) [Example 1, 2-[4-[[4-[4-[(2,6-dioxo-3-piperidyl)amino]-2-fluoro-phenyl]-1-piperidyl]methyl]cyclohexyl]-7-isopropoxy-N-[6-(trifluoromethyl)-2-pyridyl]imidazo[1,2-a]pyridine-6-carboxamide]",100 to 500
2,"CC(C)Oc1cc2nc([C@H]3CC[C@H](CN4CCC(c5ccc(NC6CCC(=O)NC6=O)cc5)CC4)CC3)cn2cc1C(=O)Nc1cccc(C(F)(F)F)n1 (stereo partly shown) [Example 2, 2-[4-[[4-[4-[(2,6-dioxo-3-piperidyl)amino]phenyl]-1-piperidyl]methyl]cyclohexyl]-7-isopropoxy-N-[6-(trifluoromethyl)-2-pyridyl]imidazo[1,2-a]pyridine-6-carboxamide]",10 to 100
3,"CC(C)Oc1cc2nc([C@H]3CC[C@H](CN4CCC(c5cccc6c5n(C)c(=O)n6C5CCC(=O)NC5=O)CC4)CC3)cn2cc1C(=O)Nc1cccc(C(F)(F)F)n1 (stereo partly shown) [Example 3, 2-[4-[[4-[1-(2,6-dioxo-3-piperidyl)-3-methyl-2-oxo-benzimidazol-4-yl]-1-piperidyl]methyl]cyclohexyl]-7-isopropoxy-N-[6-(trifluoromethyl)-2-pyridyl]imidazo[1,2-a]pyridine-6-carboxamide]",100 to 500
4,"CC(C)Oc1cc2nc([C@H]3CC[C@H](CN4CCC(c5ccc(C6CCC(=O)NC6=O)cc5)CC4)CC3)cn2cc1C(=O)Nc1cccc(C(F)(F)F)n1 (stereo partly shown) [Example 4, 2-[4-[[4-[4-(2,6-dioxo-3-piperidyl)phenyl]-1-piperidyl]methyl]cyclohexyl]-7-isopropoxy-N-[6-(trifluoromethyl)-2-pyridyl]imidazo[1,2-a]pyridine-6-carboxamide]",500 to 1000
5,"CC(C)Oc1cc2nc([C@H]3CC[C@H](CN4CCC(c5ccc6c(c5)n(C)c(=O)n6C5CCC(=O)NC5=O)CC4)CC3)cn2cc1C(=O)Nc1cccc(C(F)(F)F)n1 (stereo partly shown) [Example 5, 2-[4-[[4-[1-(2,6-dioxo-3-piperidyl)-3-methyl-2-oxo-benzimidazol-5-yl]-1-piperidyl]methyl]cyclohexyl]-7-isopropoxy-N-[6-(trifluoromethyl)-2-pyridyl]imidazo[1,2-a]pyridine-6-carboxamide]",500 to 1000
6,"CC(C)Oc1cc2nc([C@H]3CC[C@H](CN4CCC(c5ccc(C6CCC(=O)NC6=O)cc5F)CC4)CC3)cn2cc1C(=O)Nc1cccc(C(F)(F)F)n1 (stereo partly shown) [Example 6, 2-[4-[[4-[4-(2,6-dioxo-3-piperidyl)-2-fluoro-phenyl]-1-piperidyl]methyl]cyclohexyl]-7-isopropoxy-N-[6-(trifluoromethyl)-2-pyridyl]imidazo[1,2-a]pyridine-6-carboxamide]",100 to 500
7,"CC(C)Oc1cc2nc([C@H]3CC[C@H](CN(C)C4CCN(c5ccc(NC6CCC(=O)NC6=O)cc5)CC4)CC3)cn2cc1C(=O)Nc1cccc(C(F)(F)F)n1 (stereo partly shown) [Example 7, 2-[4-[[[1-[4-[(2,6-dioxo-3-piperidyl)amino]phenyl]-4-piperidyl]-methyl-amino]methyl]cyclohexyl]-7-isopropoxy-N-[6-(trifluoromethyl)-2-pyridyl]imidazo[1,2-a]pyridine-6-carboxamide]",100 to 500
8,"CC(C)Oc1cc2nc([C@H]3CC[C@H](CN(C)C4CCN(Cc5ccc(NC6CCC(=O)NC6=O)cc5)CC4)CC3)cn2cc1C(=O)Nc1cccc(C(F)(F)F)n1 (stereo partly shown) [Example 8, 2-[4-[[[1-[[4-[(2,6-dioxo-3-piperidyl)amino]phenyl]methyl]-4-piperidyl]-methyl-amino]methyl]cyclohexyl]-7-isopropoxy-N-[6-(trifluoromethyl)-2-pyridyl]imidazo[1,2-a]pyridine-6-carboxamide]",> 1000
9,"CC(C)Oc1cc2nc([C@H]3CC[C@H](CN(C)C4CCN(c5cccc(NC6CCC(=O)NC6=O)c5)CC4)CC3)cn2cc1C(=O)Nc1cccc(C(F)(F)F)n1 (stereo partly shown) [Example 9, 2-[4-[[[1-[3-[(2,6-dioxo-3-piperidyl)amino]phenyl]-4-piperidyl]-methyl-amino]methyl]cyclohexyl]-7-isopropoxy-N-[6-(trifluoromethyl)-2-pyridyl]imidazo[1,2-a]pyridine-6-carboxamide]",500 to 1000
10,"CC(C)Oc1cc2nc([C@H]3CC[C@H](CN(C)C4CCN(c5ccc6c(c5)n(C)c(=O)n6C5CCC(=O)NC5=O)CC4)CC3)cn2cc1C(=O)Nc1cccc(C(F)(F)F)n1 (stereo partly shown) [Example 10, 2-[4-[[[1-[1-(2,6-dioxo-3-piperidyl)-3-methyl-2-oxo-benzimidazol-5-yl]-4-piperidyl]-methyl-amino]methyl]cyclohexyl]-7-isopropoxy-N-[6-(trifluoromethyl)-2-pyridyl]imidazo[1,2-a]pyridine-6-carboxamide]",10 to 100
